Article PMC2920546, “Preclinical Pharmacology of BA-TPQ, a Novel Synthetic Iminoquinone Anticancer Agent” (Marine Drugs, 2010)

Legend:
[1] = tested on: breast and prostate xenograft tumors; conditions: cited from earlier work
[2] = Stability of BA-TPQ in mouse plasma; format: in vitro ADME; conditions: for Amount Remaining: mouse plasma
Procedure: The stability of BA-TPQ was evaluated at two concentrations (0.5 and 5.0 μM). The compound was incubated under the following conditions: 37 °C for 0, 1, 2, 4, and 8 h; 4 °C for 0, 1, 4, 8, and 24 h; and −80 °C for 0, 1, 2, and 4 weeks. At the designated time points, the samples were extracted and analyzed using the established HPLC analytical method. The stability of the iminoquinone was assessed by comparing the initial concentration (time 0) with the final concentration following incubation of the compound at the noted temperatures, and expressing this difference as a percentage of the initial concentration.

[3] = tested on: prostate and breast cancer cell lines; set-up: method as in PMID 19274441, PMID 19936915; conditions: cell lines with varying p53 status; cited from earlier work
[4] = Pharmacokinetics and tissue distribution in CD-1 mice; format: in vivo
Procedure: Female ICR/CD-1 (18–20 g) mice were purchased from Harlan Laboratories (Indianapolis, IN), and female nude mice (nu/nu; 4–6 weeks) were purchased from Frederick Cancer Research and Development Center (Frederick, MD). All animal use and care procedures were approved by the Institutional Animal Care and Use Committee (IACUC) of the University of Alabama at Birmingham. All animals were fed with commercial diet and water ad libitum and were on an alternating 12 h light/dark cycle.
CD-1 and nude mice were randomly divided into groups of three, and were dosed either intravenously (5 mg/kg) or intraperitoneally (10 mg/kg) with BA-TPQ in PEG 400:ethanol:0.9% saline (57.1%:14.3%:28.6%). Before dosing, and at 5, 15, 30, 60 min, and 2, 4, 8, and 24 h after dosing, groups of animals (three/time point) were anesthetized, and blood was collected from the retro-orbital sinus into heparinized tubes. Plasma was obtained by centrifuging the blood samples at 14,000 rpm for 15 min. BA-TPQ was then extracted from plasma and stored at −80 °C. The brain, heart, kidneys, liver, lungs, and spleen were also collected at the same time points during necropsy, blotted on Whatman No. 1 filter paper, trimmed of extraneous fat and connective tissue, weighed, and homogenized in phosphate-buffered saline. The resulting homogenates were stored at −80 °C until further processing and analysis. Urine and feces were collected for 24 hr from mice housed in metabolic cages. After collection, the cages were also washed twice with 200 μL PBS, and the washes were collected and analyzed separately. The total urine was determined as the amount from the urine plus washes 1 and 2. Feces were homogenized in PBS, then extracted using the same procedure used for tissues.
Six hundred microliters of acetonitrile was added to 200 μL of plasma, urine, cage washes (first and second), or tissue/feces homogenate in an Eppendorf tube to precipitate proteins. After centrifugation at 14,000 rpm for 10 min, the supernatant was transferred to a glass tube and evaporated to dryness using a TurboVap® LV Concentration Workstation (Caliper Lifesciences, Hopkinton, MA). The residue was reconstituted with 500 μL ethyl acetate, sonicated for 10 min, and vortexed for 10 sec. Samples were then centrifuged again and the resulting supernatant was transferred to a new glass tube and evaporated to dryness. Finally, samples were reconstituted in 100 μL mobile phase, and 50 μL was injected into the HPLC system for analysis.
The averages of the BA-TPQ concentration in plasma and tissues following intravenous and intraperitoneal administration to three animals per time point were used for pharmacokinetic analyses using a two-compartmental model and a non-compartment model, respectively. The following pharmacokinetic parameters were estimated using Phoenix WinNonlin 6.0 (Mountain View, CA): area under the concentration-time curve (AUC, h·μg/mL), half-life (T½, h), maximum concentration (Cmax, μg/mL), time of the maximum concentration (Tmax, h), and clearance (CL, mL/h/kg), as applicable. Bioavailability (X) was calculated as X= [AUCip × doseiv]/[AUCiv × doseip].

[5] = female, ICR/CD-1, mouse, liver, IV 5 mg/kg
[6] = female, ICR/CD-1, mouse, lungs, IP 10 mg/kg
[7] = female, ICR/CD-1, mouse, lungs, IV 5 mg/kg
[8] = female, mouse, brain, IP 10 mg/kg
[9] = female, mouse, brain, IV 5 mg/kg
[10] = female, mouse, heart, IP 10 mg/kg
[11] = female, mouse, heart, IV 5 mg/kg
[12] = female, mouse, kidneys, IP 10 mg/kg
[13] = female, mouse, kidneys, IV 5 mg/kg
[14] = female, mouse, liver, IP 10 mg/kg
[15] = female, mouse, lungs, IV 5 mg/kg
[16] = female, mouse, plasma, IP 10 mg/kg
[17] = female, mouse, plasma, IV 5 mg/kg
[18] = female, mouse, spleen, IP 10 mg/kg
[19] = female, mouse, spleen, IV 5 mg/kg

O=C1C(NCc2ccccc2)=CC2=NCCc3c[nH]c1c32 [BA-TPQ, 7-(benzylamino)-1,3,4,8-tetrahydropyrrolo[4,3,2-de]quinolin-8(1H)-one]
Death in mice on repeated dosing ([1]; 10 mg/kg, three times per week for up to six weeks): does not cause death | Toxicity in mice (weight loss) ([1]; especially at 10 mg/kg, 3 days/week for several weeks): systemic toxicity | Tumor growth in mouse xenograft models ([1]; prostate and breast cancer xenografts): inhibit tumor growth | Stability in mouse plasma (in words) ([2]; 37 °C, 4 °C and −80 °C, 0.5 μM and 5.0 μM): very stable | Amount Remaining ([2]; 4 °C, 24 hr, 0.5 μM): 94% | Amount Remaining ([2]; 4 °C, 24 hr, 5.0 μM): 117% | Amount Remaining ([2]; 37 °C, 8 hr, 0.5 μM): 92% | Amount Remaining ([2]; 37 °C, 8 hr, 5.0 μM): 114% | Amount Remaining ([2]; −80 °C, 4 weeks, 0.5 μM): 95% | Amount Remaining ([2]; −80 °C, 4 weeks, 5.0 μM): 100% | In vitro growth of prostate and breast cancer cell lines [3]: inhibit in vitro growth | Time of greatest plasma concentration ([4]; IP 10 mg/kg): 15 min | Cl ([4]; brain, IP 10 mg/kg): 2920 mL/min/kg | AUC [4, 5]: 650 ng·h/mL | Cmax [4, 5]: 690 ng/mL | clearance [4, 5]: 900 mL/min/kg | half-life [4, 5]: 39 min | AUC [4, 6]: 9150 ng·h/mL | Cmax [4, 6]: 12400 ng/mL | Tmax [4, 6]: 4.8 min | half-life [4, 6]: 30 min | AUC [4, 7]: 4980 ng·h/mL | clearance [4, 7]: 117 mL/min/kg | AUC [4, 8]: 190 ng·h/mL | Cmax [4, 8]: 180 ng/mL | Tmax [4, 8]: 15 min | half-life [4, 8]: 49.8 min | AUC [4, 9]: 220 ng·h/mL | Cmax [4, 9]: 750 ng/mL | clearance [4, 9]: 2630 mL/min/kg | half-life [4, 9]: 12.6 min | AUC [4, 10]: 4660 ng·h/mL | Cmax [4, 10]: 7240 ng/mL | Tmax [4, 10]: 4.8 min | half-life [4, 10]: 42.6 min | AUC [4, 11]: 1020 ng·h/mL | Cmax [4, 11]: 5340 ng/mL | clearance [4, 11]: 567 mL/min/kg | half-life [4, 11]: 7.8 min | AUC [4, 12]: 8060 ng·h/mL | Cmax [4, 12]: 8360 ng/mL | Tmax [4, 12]: 15 min | half-life [4, 12]: 28.8 min | AUC [4, 13]: 2830 ng·h/mL | Cmax [4, 13]: 9680 ng/mL | clearance [4, 13]: 200 mL/min/kg | half-life [4, 13]: 12 min | AUC [4, 14]: 150 ng·h/mL | Cmax [4, 14]: 470 ng/mL | Tmax [4, 14]: 4.8 min | half-life [4, 14]: 14.4 min | Cmax [4, 15]: 13000 ng/mL | half-life [4, 15]: 15.6 min | AUC [4, 16]: 110 ng·h/mL | Cmax [4, 16]: 110 ng/mL | Tmax [4, 16]: 4.8 min | half-life [4, 16]: 51.6 min | bioavailability ([4]; female, mouse, plasma, IP 10 mg/kg vs IV 5 mg/kg, read-out: Intraperitoneal bioavailability): 74% | AUC [4, 17]: 70 ng·h/mL | Cmax [4, 17]: 360 ng/mL | clearance [4, 17]: 8200 mL/min/kg | half-life [4, 17]: 8.4 min | AUC [4, 18]: 11300 ng·h/mL | Cmax [4, 18]: 23000 ng/mL | Tmax [4, 18]: 4.8 min | half-life [4, 18]: 24.6 min | AUC [4, 19]: 1800 ng·h/mL | Cmax [4, 19]: 4590 ng/mL | clearance [4, 19]: 317 mL/min/kg | half-life [4, 19]: 16.2 min | Cl ([4]; heart, IP 10 mg/kg): 130 mL/min/kg | Cl ([4]; kidneys, IP 10 mg/kg): 67 mL/min/kg | Cl ([4]; liver, IP 10 mg/kg): 4100 mL/min/kg | Cl ([4]; lungs, IP 10 mg/kg): 67 mL/min/kg | Cl ([4]; plasma, IP 10 mg/kg): 5750 mL/min/kg | Concentration in the plasma for the first 30 minutes ([4]; single bolus IV 5 mg/kg): up to 0.18 μg/mL | Cl ([4]; spleen, IP 10 mg/kg): 50 mL/min/kg
